Laboratory results taken from patent publication US20250129069A1, “TRIAZOLO WRN INHIBITORS” (Nimbus Wadjet, Inc., priority 2023, published 2025).

Experiments:
[1] = target: human Werner helicase (WRN, amino acids 517-1235 with L1074F point mutation) (Homo sapiens (Human), UniProt Q14191, L1074F); assay: WRN (BV08) ADP-Glo assay; type: biochemical; conditions: human WRN (aa 517-1235, L1074F), read-out: ADP-Glo_hWRN_IC50
Summary of the method: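 Untagged WRN 517-1235 (L1074F), Sf9/baculovirus-expressed, 0.15 nM, preincubated 15 min with compound, then 5 μM ATP and 0.1 nM annealed DNA duplex added; 60 min at 25 °C in Bicine pH 7.5, 1 mM MgCl2, 1% DMSO. ADP-Glo luminescence; % inhibition vs DMSO and 20 μM NSC-617145 controls, four-parameter IC50 fit.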

[2] = test system: p21 induction in HCT 116 cells; assay: p21 induction in cells (In-Cell Western, p21/GAPDH ratio); type: cell-based; conditions: Homo sapiens, 24 h compound incubation, read-out: p21_EC50
Summary of the method: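 HCT 116 cells treated 24 h at 37° C with 11-point, 2-fold dilutions typically from 10 μM, in duplicate. Fixed cells co-stained for p21 (800 nm) and GAPDH (700 nm) by In-Cell Western. p21/GAPDH ratio normalised between DMSO and reference WRN inhibitor controls, and EC50 obtained by nonlinear regression.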

human Werner helicase (WRN, amino acids 517-1235 with L1074F point mutation), sequence (Q14191 other isoform, or with tags, fused parts or gaps L1074F (already in the parent)): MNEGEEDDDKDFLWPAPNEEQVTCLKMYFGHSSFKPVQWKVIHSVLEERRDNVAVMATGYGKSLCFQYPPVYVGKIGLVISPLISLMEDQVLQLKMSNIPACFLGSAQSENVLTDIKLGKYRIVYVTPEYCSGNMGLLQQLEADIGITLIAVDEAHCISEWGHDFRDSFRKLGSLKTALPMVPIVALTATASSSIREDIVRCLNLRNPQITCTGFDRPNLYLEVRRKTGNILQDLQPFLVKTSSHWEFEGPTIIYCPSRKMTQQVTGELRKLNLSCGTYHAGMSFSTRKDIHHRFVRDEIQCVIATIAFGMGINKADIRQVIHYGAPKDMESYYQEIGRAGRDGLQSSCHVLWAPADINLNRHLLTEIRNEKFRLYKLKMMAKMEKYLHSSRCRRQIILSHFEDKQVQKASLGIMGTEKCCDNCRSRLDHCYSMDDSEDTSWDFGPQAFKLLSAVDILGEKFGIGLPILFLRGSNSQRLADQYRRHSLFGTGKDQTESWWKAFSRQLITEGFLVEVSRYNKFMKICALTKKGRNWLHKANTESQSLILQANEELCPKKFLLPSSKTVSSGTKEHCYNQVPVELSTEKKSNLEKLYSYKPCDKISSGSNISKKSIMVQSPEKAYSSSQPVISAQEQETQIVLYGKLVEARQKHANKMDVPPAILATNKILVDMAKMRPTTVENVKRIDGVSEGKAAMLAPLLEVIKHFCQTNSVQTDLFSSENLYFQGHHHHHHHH

Row | IC50 [1] | EC50 [2] | Compound
1 | 5 to 50 nM | ≤ 500 nM | CCc1c(N2CCN(C(=O)c3ncnc(C)c3O)[C@H]3CC[C@@H]32)c(=O)c2nn(-c3ccn(C)n3)nc2n1CC(=O)NC12CC(C(C)C)(C1)C2 [Compound I-187, 2-{5-ethyl-6-[(1S,6S)-5-(5-hydroxy-6-methylpyrimidine-4-carbonyl)-2,5-diazabicyclo[4.2.0]octan-2-yl]-2-(1-methyl-1H-pyrazol-3-yl)-7-oxo-2H,4H,7H-[1,2,3]triazolo[4,5-b]pyridin-4-yl}-N-[3-(propan-2-yl)bicyclo[1.1.1]pentan-1-yl]acetamide]
2 | ≤ 5 nM | ≤ 500 nM | CCc1c(N2CCN(C(=O)c3ncnc(C)c3O)[C@H]3CC[C@@H]32)c(=O)c2nn(C3CC3(F)F)nc2n1CC(=O)Nc1ccc(C(F)(F)F)cc1Cl (stereo partly drawn) [Compound I-189, N-[2-chloro-4-(trifluoromethyl)phenyl]-2-[2-(2,2-difluorocyclopropyl)-5-ethyl-6-[(1S,6S)-5-(5-hydroxy-6-methylpyrimidine-4-carbonyl)-2,5-diazabicyclo[4.2.0]octan-2-yl]-7-oxo-2H,4H,7H-[1,2,3]triazolo[4,5-b]pyridin-4-yl]acetamide]
3 | 5 to 50 nM | ≤ 500 nM | CCc1c(N2CCN(C(=O)c3c(OC)nc(C(F)F)c(C)c3O)[C@H]3CC[C@@H]32)c(=O)c2nn(C3=CCOCC3)nc2n1CC(=O)NC12CC(C3CC3)(C1)C2 [Compound I-190, N-{3-cyclopropylbicyclo[1.1.1]pentan-1-yl}-2-{6-[(1S,6S)-5-[6-(difluoromethyl)-4-hydroxy-2-methoxy-5-methylpyridine-3-carbonyl]-2,5-diazabicyclo[4.2.0]octan-2-yl]-2-(3,6-dihydro-2H-pyran-4-yl)-5-ethyl-7-oxo-2H,4H,7H-[1,2,3]triazolo[4,5-b]pyridin-4-yl}acetamide]
4 | 5 to 50 nM | 500 to 2000 nM | CCc1c(N2CCN(C(=O)c3c(N)ncnc3OC)[C@H]3CC[C@@H]32)c(=O)c2nn(C3=CCOCC3)nc2n1CC(=O)NC12CC(C3CC3)(C1)C2 [Compound I-193, 2-{6-[(1S,6S)-5-(4-amino-6-methoxypyrimidine-5-carbonyl)-2,5-diazabicyclo[4.2.0]octan-2-yl]-2-(3,6-dihydro-2H-pyran-4-yl)-5-ethyl-7-oxo-2H,4H,7H-[1,2,3]triazolo[4,5-b]pyridin-4-yl}-N-{3-cyclopropylbicyclo[1.1.1]pentan-1-yl}acetamide]

The remaining lines, values behind:

Row | Compound | IC50 [1] | EC50 [2]
5 | CCc1c(N2CCN(C(=O)c3csnc3OC)[C@H]3CC[C@@H]32)c(=O)c2nn(C3=CCOCC3)nc2n1CC(=O)NC12CC(C(C)C)(C1)C2 [Compound I-175, 2-[2-(3,6-dihydro-2H-pyran-4-yl)-5-ethyl-6-[(1S,6S)-5-(3-methoxy-1,2-thiazole-4-carbonyl)-2,5-diazabicyclo[4.2.0]octan-2-yl]-7-oxo-2H,4H,7H-[1,2,3]triazolo[4,5-b]pyridin-4-yl]-N-[3-(propan-2-yl)bicyclo[1.1.1]pentan-1-yl]acetamide] | 5 to 50 nM | ≤ 500 nM
6 | CCc1c(N2CCN(C(=O)c3c(OC)ncc(F)c3O)[C@H]3CC[C@@H]32)c(=O)c2nn(-c3ccnc(OC)c3)nc2n1CC(=O)NC12CC(C(C)C)(C1)C2 [Compound I-177, 2-{5-ethyl-6-[(1S,6S)-5-(5-fluoro-4-hydroxy-2-methoxypyridine-3-carbonyl)-2,5-diazabicyclo[4.2.0]octan-2-yl]-2-(2-methoxypyridin-4-yl)-7-oxo-2H,4H,7H-[1,2,3]triazolo[4,5-b]pyridin-4-yl}-N-[3-(propan-2-yl)bicyclo[1.1.1]pentan-1-yl]acetamide] | ≤ 5 nM | ≤ 500 nM
7 | CCc1c(N2CCN(C(=O)c3ncnc(C)c3O)[C@H](C)C2)c(=O)c2nn(-c3ccnc(OC)c3)nc2n1CC(=O)NC12CC(C3CC3)(C1)C2 [Compound I-178, N-{3-cyclopropylbicyclo[1.1.1]pentan-1-yl}-2-{5-ethyl-6-[(3R)-4-(5-hydroxy-6-methylpyrimidine-4-carbonyl)-3-methylpiperazin-1-yl]-2-(2-methoxypyridin-4-yl)-7-oxo-2H,4H,7H-[1,2,3]triazolo[4,5-b]pyridin-4-yl}acetamide] | 5 to 50 nM | 500 to 2000 nM
8 | CCc1c(N2CCN(C(=O)c3ncnc(C)c3O)[C@H]3CC[C@@H]32)c(=O)c2nn(-c3cccc(C)n3)nc2n1CC(=O)NC12CC(C(C)C)(C1)C2 [Compound I-179, 2-{5-ethyl-6-[(1S,6S)-5-(5-hydroxy-6-methylpyrimidine-4-carbonyl)-2,5-diazabicyclo[4.2.0]octan-2-yl]-2-(6-methylpyridin-2-yl)-7-oxo-2H,4H,7H-[1,2,3]triazolo[4,5-b]pyridin-4-yl}-N-[3-(propan-2-yl)bicyclo[1.1.1]pentan-1-yl]acetamide] | 5 to 50 nM | ≤ 500 nM
9 | CCc1c(N2CCN(C(=O)c3ccccn3)[C@H]3CC[C@@H]32)c(=O)c2nn(C3=CCOCC3)nc2n1CC(=O)NC12CC(C(C)C)(C1)C2 [Compound I-184, 2-[2-(3,6-dihydro-2H-pyran-4-yl)-5-ethyl-7-oxo-6-[(1S,6S)-5-(pyridine-2-carbonyl)-2,5-diazabicyclo[4.2.0]octan-2-yl]-2H,4H,7H-[1,2,3]triazolo[4,5-b]pyridin-4-yl]-N-[3-(propan-2-yl)bicyclo[1.1.1]pentan-1-yl]acetamide] | 5 to 50 nM | 500 to 2000 nM
10 | CCc1c(N2CCN(C(=O)c3cc(N4CCC(C)(O)C4)cnc3OC)[C@H]3CC[C@@H]32)c(=O)c2nn(C3=CCOCC3)nc2n1CC(=O)NC12CC(C3CC3)(C1)C2 (stereo partly drawn) [Compound I-186, N-{3-cyclopropylbicyclo[1.1.1]pentan-1-yl}-2-[2-(3,6-dihydro-2H-pyran-4-yl)-5-ethyl-6-[(1S,6S)-5-[5-(3-hydroxy-3-methylpyrrolidin-1-yl)-2-methoxypyridine-3-carbonyl]-2,5-diazabicyclo[4.2.0]octan-2-yl]-7-oxo-2H,4H,7H-[1,2,3]triazolo[4,5-b]pyridin-4-yl]acetamide] | 5 to 50 nM | 500 to 2000 nM
11 | CCc1c(N2CCN(C(=O)c3c(OC)ccnc3OC)[C@H]3CC[C@@H]32)c(=O)c2nn(C3=CCOCC3)nc2n1CC(=O)NC12CC(C(C)C)(C1)C2 [Compound I-191, 2-[2-(3,6-dihydro-2H-pyran-4-yl)-6-[(1S,6S)-5-(2,4-dimethoxypyridine-3-carbonyl)-2,5-diazabicyclo[4.2.0]octan-2-yl]-5-ethyl-7-oxo-2H,4H,7H-[1,2,3]triazolo[4,5-b]pyridin-4-yl]-N-[3-(propan-2-yl)bicyclo[1.1.1]pentan-1-yl]acetamide] | 5 to 50 nM | ≤ 500 nM
12 | CCc1c(N2CCN(C(=O)c3ncnc(C)c3O)[C@H]3CC[C@@H]32)c(=O)c2nn(-c3ccnc(OC)c3)nc2n1CC(=O)NC12CC(C3CCCC3)(C1)C2 [Compound I-195, N-{3-cyclopentylbicyclo[1.1.1]pentan-1-yl}-2-{5-ethyl-6-[(1S,6S)-5-(5-hydroxy-6-methylpyrimidine-4-carbonyl)-2,5-diazabicyclo[4.2.0]octan-2-yl]-2-(2-methoxypyridin-4-yl)-7-oxo-2H,4H,7H-[1,2,3]triazolo[4,5-b]pyridin-4-yl}acetamide] | ≤ 5 nM | ≤ 500 nM
